Measured values: ChEMBL document CHEMBL5149976, “β-Carbolines as potential anticancer agents” (Eur J Med Chem, 2021)
In brackets after ≈: the same amount, converted by molar mass.

Experiments:
[1] = tested on: Panel NCI-60 (60 carcinoma cell lines); test: Cytotoxicity against human Panel NCI-60 (60 carcinoma cell lines) assessed as cell growth inhibition; format: functional, cell-based
CCRF S-180 = test: Antitumor activity against mouse CCRF S-180 cells allografted in ICR mouse assessed as tumor growth inhibition at 0.1 micromol/kg, iv administered for 7 days relative to control; format: functional; details: dose 0.1 µmol/kg, time 7 day
Calf thymus DNA [2] = test: Binding affinity to calf thymus DNA assessed as binding constant by spectrophotometric analysis; format: nucleic-acid assay; details: Bos taurus
Calf thymus DNA [3] = test: Stabilization of calf thymus DNA assessed as change in melting temperature; format: nucleic-acid assay; details: Bos taurus
KB = test: Cytotoxicity against human KB cells; format: functional, cell-based
L1210 [4] = test: Cytotoxicity against mouse L1210 cells assessed as cell growth inhibition; format: functional, cell-based
[5] = target: DNA topoisomerase 1 (Homo sapiens) (UniProt P11387); test: Inhibition of topoisomerase 1 (unknown origin) assessed as relaxation of pBR322 plasmid DNA and incubated for 10 mins
Sequence of DNA topoisomerase 1 (Homo sapiens) (P11387 whole entry): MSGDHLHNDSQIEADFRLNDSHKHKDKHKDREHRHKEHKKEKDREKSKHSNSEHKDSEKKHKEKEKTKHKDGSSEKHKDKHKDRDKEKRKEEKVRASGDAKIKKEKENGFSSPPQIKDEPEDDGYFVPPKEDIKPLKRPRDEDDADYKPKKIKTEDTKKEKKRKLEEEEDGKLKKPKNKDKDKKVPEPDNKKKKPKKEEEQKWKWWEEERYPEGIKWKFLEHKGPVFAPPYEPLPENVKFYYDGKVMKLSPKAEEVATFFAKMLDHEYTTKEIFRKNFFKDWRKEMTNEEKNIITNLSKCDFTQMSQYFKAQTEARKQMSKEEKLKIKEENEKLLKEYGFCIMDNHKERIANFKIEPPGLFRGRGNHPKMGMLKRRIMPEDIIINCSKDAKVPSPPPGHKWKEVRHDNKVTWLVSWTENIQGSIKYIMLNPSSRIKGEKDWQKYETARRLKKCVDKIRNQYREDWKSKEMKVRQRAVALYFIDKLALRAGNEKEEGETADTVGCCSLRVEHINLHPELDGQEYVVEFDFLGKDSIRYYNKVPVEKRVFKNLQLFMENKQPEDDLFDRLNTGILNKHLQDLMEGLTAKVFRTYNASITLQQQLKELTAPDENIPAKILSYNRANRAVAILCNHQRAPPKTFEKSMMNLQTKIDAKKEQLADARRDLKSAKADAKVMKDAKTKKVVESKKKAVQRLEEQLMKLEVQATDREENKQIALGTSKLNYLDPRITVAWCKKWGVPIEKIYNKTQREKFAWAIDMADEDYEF

[6] = In vivo antitumor activity against mouse Lewis lung carcinoma cells xenografted in mouse model assessed as inhibition of cell growth relative to control; format: functional
[7] = Cytotoxicity against human KB-16 cells assessed as cell growth inhibition and measured after 5 hrs by MTT assay; format: functional, cell-based; details: KB16, 5 h
P388 [8] = test: Cytotoxicity against mouse P388 cells assessed as cell growth inhibition and measured after 5 hrs by MTT assay; format: functional, cell-based; details: P388, 5 h
A549 [9] = test: Cytotoxicity against human A549 cells assessed as cell growth inhibition and measured after 5 hrs by MTT assay; format: functional, cell-based; details: A549, 5 h
HT-29 [10] = test: Cytotoxicity against human HT-29 cells assessed as cell growth inhibition and measured after 5 hrs by MTT assay; format: functional, cell-based; details: HT-29, 5 h
MCF7 = test: Cytotoxicity against human MCF7 cells assessed as cell growth inhibition; format: functional, cell-based
HeLa [11] = test: Cytotoxicity against human HeLa cells assessed as cell growth inhibition; format: functional, cell-based
L1210 [12] = test: Cytotoxicity against mouse L1210 cells; format: functional; details: read-out: ED50 (the source's name)
MOLT-4F = test: Cytotoxicity against human MOLT-4F cells; format: functional; details: read-out: ED50 (the source's name)
MT4 = test: Cytotoxicity against human MT4 cells; format: functional; details: read-out: ED50 (the source's name)
P388 [13] = test: Cytotoxicity against mouse P388 cells; format: functional, cell-based; details: read-out: ED50 (the source's name)
L5178Y = test: Cytotoxicity against mouse L5178Y cells assessed as cell growth inhibition; format: functional, cell-based
[14] = Cytotoxicity against mouse C19 cells assessed as cell growth inhibition by MTT assay; format: functional, cell-based
B16 = test: Cytotoxicity against mouse B16 cells assessed as cell growth inhibition by MTT assay; format: functional, cell-based
A549 [15] = test: Cytotoxicity against human A549 cells assessed as cell growth inhibition by MTT assay; format: functional, cell-based
HepG2 = test: Cytotoxicity against human HepG2 cells assessed as cell growth inhibition and measured after 24 hrs by MTT assay; format: functional, cell-based; details: HepG2, 24 h
HeLa [16] = test: Cytotoxicity against human HeLa cells assessed as cell growth inhibition and measured after 24 hrs by MTT assay; format: functional, cell-based
CCRF-CEM = test: Cytotoxicity against human CCRF-CEM cells assessed as cell growth inhibition; format: functional, cell-based
RPMI-8226 = test: Cytotoxicity against human RPMI-8226 cells assessed as cell growth inhibition; format: functional, cell-based
HOP-92 = test: Anticancer activity against human HOP-92 cells; format: functional
M14 = test: Anticancer activity against human M14 cells; format: functional
UACC-62 = test: Anticancer activity against human UACC-62 cells; format: functional
HT-29 [17] = test: Anticancer activity against human HT-29 cells; format: functional
MDA-MB-231 = test: Anticancer activity against human MDA-MB-231 cells; format: functional
OVCAR-3 [18] = test: Anticancer activity against human OVCAR-3 cells; format: functional
NCI-H1299 = test: Cytotoxicity against human NCI-H1299 cells assessed as cell growth inhibition; format: functional, cell-based
LoVo = test: Cytotoxicity against human LoVo cells assessed as cell growth inhibition; format: functional, cell-based
DU-145 = test: Cytotoxicity against human DU-145 cells assessed as cell growth inhibition by MTT assay; format: functional, cell-based; details: pooled result: one value given for 5 cell lines, strains, targets or settings
U-251 = test: Cytotoxicity against human U-251 cells assessed as cell growth inhibition and measured after 48 hrs; format: functional, cell-based; details: U-251, 48 h
OVCAR-3 [19] = test: Cytotoxicity against human OVCAR-3 cells assessed as cell growth inhibition and measured after 48 hrs; format: functional, cell-based; details: OVCAR-3, 48 h
PC-3 = test: Cytotoxicity against human PC-3 cells assessed as cell growth inhibition and measured after 48 hrs; format: functional, cell-based; details: PC-3, 48 h
A-375 = test: Cytotoxicity against human A-375 cells assessed as cell growth inhibition; format: functional, cell-based
HGC-27 = test: Cytotoxicity against human HGC-27 cells assessed as inhibition of cell growth measured after 48 hrs by MTT assay; format: functional, cell-based; details: HGC-27, 48 h
HT-29 [20] = test: Cytotoxicity against human HT-29 cells assessed as inhibition of cell growth measured after 48 hrs by MTT assay; format: functional, cell-based; details: HT-29, 48 h
Calu-1 = test: Anti-ferroptotic activity against human Calu-1 cells assessed as cell growth inhibition; format: functional, cell-based
[21] = Anti-ferroptotic activity against human BJeLR cells assessed as cell growth inhibition; format: functional, cell-based

COc1ccc(-c2nc(-c3nc4ccc(F)cc4[nH]3)cc3c2[nH]c2ccccc23)cc1 showed an IC50 [1] of 1900 nM.
Compound CC[C@H](C)[C@H](NC(=O)[C@H](Cc1c[nH]c2ccccc12)NC(=O)[C@H](Cc1c[nH]c2ccccc12)NC(=O)c1cc2c([nH]c3ccccc32)c(-c2ccc(O)c(OC)c2)n1)C(=O)OCc1ccccc1 has a TGI (CCRF S-180) of 63.4%.
In the case of NCCCCNC(=O)c1cc2c(cn1)[nH]c1ccccc12, the K (Calf thymus DNA [2]) is reported as 4.5 10^4/M and the ΔTm (Calf thymus DNA [3]) is reported as 5.7 °C.
O[C@]12C=C(C3=NCCc4c3[nH]c3ccccc43)[C@@H]3CCN(CCCC/C=C\CC1)C[C@@]31C[C@@H]3/C=C\CCCCN3[C@H]12 [3,4-DIHYDROMANZAMINE A] gave an IC50 (KB) of 610 nM and an IC50 (L1210 [4]; Mus musculus, L1210) of 4800 nM.
With c1ccc2c(c1)[nH]c1cnccc12 the ED50 [5] was 34.4 µg/mL (≈ 205 µM).
With CCCCn1c2ccccc2c2ccnc(C(=O)OCCCCCCOC(=O)c3nccc4c5ccccc5n(CCCC)c34)c21 the “inhibition (INH)” value [6] was 64.2%.
CCN(CC)c1ccc(C2NCCc3c2[nH]c2ccccc32)cc1 (stereo not given) gave an IC50 [7] of 0.07 µg/mL (≈ 0.219 µM), an IC50 (P388 [8]) of 0.07 µg/mL (≈ 0.219 µM) and an IC50 (A549 [9]) of 0.07 µg/mL (≈ 0.219 µM). It also gave an IC50 (HT-29 [10]) of 0.07 µg/mL (≈ 0.219 µM).
In the case of COc1ccccc1-c1c(-c2ccccc2)ncc2[nH]c3ccccc3c12, the IC50 (MCF7) is reported as 35300 nM and the IC50 (HeLa [11]) is reported as 35600 nM.
Compound COC(=O)[C@@H]1Cc2c([nH]c3ccccc23)[C@@H](c2ccccc2)N1 has an IC50 [1] of 360 nM.
With COc1ccc2c(c1)C1CCN3OCSCC(N)C3C1N2 (stereo not given) the EC50 (L1210 [12]) was under 5 nM, the EC50 (MOLT-4F) was under 5 nM and the EC50 (MT4) was under 5 nM. The EC50 (P388 [13]) was under 5 nM.
In the case of COc1cc(-c2nc(C(=O)N[C@@H](Cc3c[nH]c4ccccc34)C(=O)N[C@@H](Cc3c[nH]c4ccccc34)C(=O)N[C@@H](CO)C(=O)OCc3ccccc3)cc3c2[nH]c2ccccc23)ccc1O, the TGI (CCRF S-180) is reported as 62.9%.
Cc1nccc2c1[nH]c1ccccc12 showed an ED50 [5] of 23.8 µg/mL (≈ 131 µM).
Compound CNC(CSC)c1nccc2c1[nH]c1ccc(O)c(Br)c12 (stereo not given) has an IC50 (L1210 [4]; Mus musculus, L1210) of 1800 nM, an IC50 (L1210 [4]; l1210) of 2400 nM and an IC50 (L5178Y) of 1800 nM.
c1ccc2c(-c3nccc4c3[nH]c3ccccc34)c[nH]c2c1 gave an IC50 [14] of 15600 nM.
Work on NC1CSCON2CCC3c4ccccc4NC3C12 (stereo not given) yielded an EC50 (L1210 [12]) of 5 nM, an EC50 (MOLT-4F) of 5 nM and an EC50 (MT4) of 5 nM. The EC50 (P388 [13]) was 5 nM.
Compound Fc1ccc(-c2nc(-c3nc4ccc(Cl)cc4[nH]3)cc3c2[nH]c2ccccc23)cc1 has an IC50 [1] of 1900 nM.
Work on c1ccc(-c2nc(-c3nc4ccccc4[nH]3)cc3c2[nH]c2ccccc23)cc1 yielded an IC50 [1] of 360 nM.
Work on O=C(/C=C/C1Cc2c([nH]c3ccccc23)C(c2ccc(F)cc2)N1)c1ccc(F)cc1 (stereo not given) yielded an IC50 (B16) of 7340 nM and an IC50 (A549 [15]) of 5650 nM.
Cn1c2cnccc2c2c(Br)c(O)ccc21 showed an IC50 (L1210 [4]; Mus musculus, L1210) of 420 nM, an IC50 (L1210 [4]; l1210) of 360 nM and an IC50 (L5178Y) of 420 nM.
Oc1ccc2[nH]c3c(C4=C[C@@]5(O)CC/C=C\CCCCN6CC[C@@H]4[C@]4(C[C@@H]7/C=C\CCCCN7[C@H]45)C6)nccc3c2c1 [MANZAMINE Y] gave an IC50 (KB) of 2500 nM and an IC50 (L1210 [4]; Mus musculus, L1210) of 1500 nM.
For COC(=O)c1cc2c([nH]c3ccccc32)c(-c2ccc(OCc3cn(-c4cccc(Cl)c4Cl)nn3)cc2)n1, the IC50 (HepG2) was 32000 nM and the IC50 (HeLa [16]) was 46000 nM.
Compound COc1ccc(-c2nc(-c3nc4ccc(OC)cc4[nH]3)cc3c2[nH]c2ccccc23)cc1 has an IC50 [1] of 1900 nM, an IC50 (CCRF-CEM) of 880 nM and an IC50 (RPMI-8226) of 360 nM.
Cc1ccc(C[C@H](N)[C@@H]2NCCc3c2[nH]c2ccc(Br)cc32)cc1 gave an IC50 (L1210 [4]; Mus musculus, L1210) of 3100 nM, an IC50 (L1210 [4]; l1210) of 3400 nM and an IC50 (L5178Y) of 3100 nM.
For CCN(CC)CCCNc1nccc2c1[nH]c1ccccc12, the GI50 (HOP-92) was 380 nM, the GI50 (M14) was 2000 nM and the GI50 (UACC-62) was 2300 nM. The GI50 (HT-29 [17]) was 2700 nM, the GI50 (MDA-MB-231) was 5200 nM and the GI50 (OVCAR-3 [18]) was 1600 nM.
In the case of c1ccc2c(c1)[nH]c1c(CNCCOCCNCc3nccc4c3[nH]c3ccccc34)nccc12, the IC50 (NCI-H1299) is reported as 1600 nM.
Compound CCCCc1nc(C(=O)O)cc2c1[nH]c1ccccc12 has an IC50 (LoVo) of 11000 nM.
With CCn1c2ccccc2c2cc(C3NCCc4c3[nH]c3ccccc43)ccc21 (stereo not given) the IC50 [7] was under 0.001 µg/mL, the IC50 (P388 [8]) was under 0.001 µg/mL and the IC50 (A549 [9]) was under 0.001 µg/mL. The IC50 (HT-29 [10]) was under 0.001 µg/mL.
In the case of COc1ccc2nc(-c3cc4c([nH]c5ccccc54)c(-c4ccc(F)c(F)c4)n3)[nH]c2c1, the IC50 [1] is reported as 1900 nM.
COc1ccc(-c2c(-c3ccccc3)ncc3[nH]c4ccccc4c23)cc1 gave an IC50 (MCF7) of 20800 nM and an IC50 (HeLa [11]) of 33600 nM.
Compound O=C(/C=C/c1cc2c([nH]c3ccccc32)c(-c2ccc(F)cc2)n1)c1ccco1 has an IC50 (DU-145) of 1860 nM and an IC50 (A549 [15]) of 1860 nM.
COc1ccc(-c2nc(C3=N/C(=C\c4ccccc4)C(=O)O3)cc3c2[nH]c2ccccc23)cc1 gave an IC50 (U-251) of 480 nM, an IC50 (OVCAR-3 [19]) of 1070 nM and an IC50 (PC-3) of 1500 nM.
For CC(=O)N1N=C(c2ccco2)CC1c1cc2c([nH]c3ccccc32)c(-c2ccc(F)cc2)n1 (stereo not given), the IC50 (DU-145) was 1940 nM and the IC50 (A549 [15]) was 1940 nM.
Compound c1ccc2c(c1)[nH]c1c(CNCCOCCOCCNCc3nccc4c3[nH]c3ccccc34)nccc12 has an IC50 (A-375) of 2000 nM.
For O=Cc1cc2c([nH]c3ccccc32)c(-c2ccccc2)n1, the IC50 [1] was 360 nM.
COc1cc(-c2nc(Cn3cc(CN4C(=O)c5ccc(C)cc5C4=O)nn3)cc3c2[nH]c2ccccc23)cc(OC)c1OC showed an IC50 (HGC-27) of under 10000 nM and an IC50 (HT-29 [20]) of 3670 nM.
COc1cccc2c1C(=O)c1c(O)c3c(c(O)c1C2=O)C[C@@](O)(C(=O)CO)C[C@@H]3O[C@H]1C[C@H](N)[C@H](O)[C@H](C)O1.Cl [DOXORUBICIN HYDROCHLORIDE] gave a TGI (CCRF S-180) of 61.1%.
In the case of COC(=O)c1ccc([C@H]2c3[nH]c4ccccc4c3C[C@H](C(=O)OC)N2C(=O)CCl)cc1, the IC50 (Calu-1) is reported as 20 nM and the IC50 [21] is reported as 2000 nM.
